Test results reported in ChEMBL document CHEMBL1201862, “PubChem BioAssay data set” (2004).
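Growth conditions: 96-well plates. Treatment: test compound, 48 hours, 5 concentrations. Analysis: linear interpolation between bracketing concentrations; unreached endpoints set to highest concentration. Here, GI50 denotes the concentration required for 50% inhibition of growth.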 Calls of active or inactive are those of the source. No stated cut-off is given here; in the data, active = GI50 up to about 1.1 µM and inactive = higher.

Assays:
Test in all cases: NCI anticancer screen, dose series, 48 h
HCT-116 = system: HCT-116
OVCAR-3 = system: OVCAR-3
A498 = system: A498
Hs-578T = system: Hs-578T
SF-295 = system: SF-295
COLO 205 = system: COLO 205
NCI-H23 = system: NCI-H23
Malme-3M = system: Malme-3M
CCRF-CEM = system: CCRF-CEM
TK-10 = system: TK-10
MDA-MB-435 = system: MDA-MB-435
NCI-H460 = system: NCI-H460
SF-268 = system: SF-268
NCI-H226 = system: NCI-H226
LOX IMVI = system: LOX IMVI
OVCAR-5 = system: OVCAR-5
OVCAR-4 = system: OVCAR-4
UACC-62 = system: UACC-62
PC-3 = system: PC-3
HOP-62 = system: HOP-62
CAKI-1 = system: CAKI-1
RPMI-8226 = system: RPMI-8226
MOLT-4 = system: MOLT-4
A549 = system: A549
HL-60 = system: HL-60
SN12C = system: SN12C
DU-145 = system: DU-145
SK-MEL-2 = system: SK-MEL-2
786-0 = system: 786-0
NCI-H522 = system: NCI-H522
EKVX = system: EKVX
HT-29 = system: HT-29
BT-549 = system: BT-549
U-251 = system: U-251
M14 = system: M14
SW-620 = system: SW-620
HCC 2998 = system: HCC 2998
MCF7 = system: MCF7
MDA-N = system: MDA-N
MDA-MB-231 = system: MDA-MB-231
UACC-257 = system: UACC-257
RXF 393 = system: RXF 393
OVCAR-8 = system: OVCAR-8
SF-539 = system: SF-539
SK-MEL-28 = system: SK-MEL-28
K562 = system: K562
UO-31 = system: UO-31
KM12 = system: KM12
SNB-19 = system: SNB-19
SK-MEL-5 = system: SK-MEL-5
IGROV-1 = system: IGROV-1
HOP-92 = system: HOP-92
SK-OV-3 = system: SK-OV-3
T47D = system: T47D
HCT-15 = system: HCT-15
SR = system: SR
ACHN = system: ACHN
NCI/ADR-RES = system: NCI/ADR-RES
SNB-75 = system: SNB-75

SMILES: N#Cc1c(O)nc2[nH]nc(/N=N\c3c(O)ccc4ccccc34)c2c1-c1ccc(Cl)cc1
- GI50 (HCT-116): 114 nM (active)
- GI50 (OVCAR-3): 66.7 nM (active)
- GI50 (A498): 117 nM (active)
- GI50 (Hs-578T): 968 nM (active)
- GI50 (SF-295): 240 nM (active)
- GI50 (COLO 205): 433 nM (active)
- GI50 (NCI-H23): 470 nM (active)
- GI50 (Malme-3M): 143 nM (active)
- GI50 (CCRF-CEM): < 37.1 nM (active)
- GI50 (TK-10): 108 nM (active)
- GI50 (MDA-MB-435): 789 nM (active)
- GI50 (NCI-H460): 79.2 nM (active)
- GI50 (SF-268): 68.2 nM (active)
- GI50 (NCI-H226): 400 nM (active)
- GI50 (LOX IMVI): 57 nM (active)
- GI50 (OVCAR-5): 834 nM (active)
- GI50 (OVCAR-4): 241 nM (active)
- GI50 (UACC-62): 103 nM (active)
- GI50 (PC-3): 303 nM (active)
- GI50 (HOP-62): 164 nM (active)
- GI50 (CAKI-1): 282 nM (active)
- GI50 (RPMI-8226): 1560 nM (inactive)
- GI50 (MOLT-4): 171 nM (active)
- GI50 (A549): 312 nM (active)
- GI50 (HL-60): 71.3 nM (active)
- GI50 (SN12C): 391 nM (active)
- GI50 (DU-145): 170 nM (active)
- GI50 (SK-MEL-2): 202 nM (active)
- GI50 (786-0): 68.9 nM (active)
- GI50 (NCI-H522): 248 nM (active)
- GI50 (EKVX): 219 nM (active)
- GI50 (HT-29): 123 nM (active)
- GI50 (BT-549): 82.6 nM (active)
- GI50 (U-251): 124 nM (active)
- GI50 (M14): 188 nM (active)
- GI50 (SW-620): 163 nM (active)
- GI50 (HCC 2998): 359 nM (active)
- GI50 (MCF7): 147 nM (active)
- GI50 (MDA-N): 637 nM (active)
- GI50 (MDA-MB-231): 230 nM (active)
- GI50 (UACC-257): 851 nM (active)
- GI50 (RXF 393): 198 nM (active)
- GI50 (OVCAR-8): 233 nM (active)
- GI50 (SF-539): 290 nM (active)
- GI50 (SK-MEL-28): 311 nM (active)
- GI50 (K562): 1630 nM (inactive)
- GI50 (UO-31): 175 nM (active)
- GI50 (KM12): 403 nM (active)
- GI50 (SNB-19): 211 nM (active)
- GI50 (SK-MEL-5): 369 nM (active)
- GI50 (IGROV-1): 286 nM (active)
- GI50 (HOP-92): 234 nM (active)
- GI50 (SK-OV-3): 187 nM (active)
- GI50 (T47D): 173 nM (active)
- GI50 (HCT-15): 19 nM
- GI50 (SR): 255 nM (active)
- GI50 (ACHN): 296 nM (active)
- GI50 (NCI/ADR-RES): 97.5 nM (active)

SMILES: C=CCc1cccc2cc(C(=O)NC3CCCCC3)c(=N)oc12
- GI50 (HCT-116): 13900 nM (inactive)
- GI50 (OVCAR-3): 14100 nM (inactive)
- GI50 (A498): 16700 nM (inactive)
- GI50 (Hs-578T): 11300 nM (inactive)
- GI50 (COLO 205): 16700 nM (inactive)
- GI50 (NCI-H23): 19900 nM (inactive)
- GI50 (Malme-3M): > 100000 nM (inactive)
- GI50 (CCRF-CEM): 17500 nM (inactive)
- GI50 (MDA-MB-435): 20700 nM (inactive)
- GI50 (NCI-H460): 16100 nM (inactive)
- GI50 (SF-268): 17700 nM (inactive)
- GI50 (NCI-H226): 20100 nM (inactive)
- GI50 (LOX IMVI): 15400 nM (inactive)
- GI50 (OVCAR-5): 17900 nM (inactive)
- GI50 (OVCAR-4): 20900 nM (inactive)
- GI50 (UACC-62): 16300 nM (inactive)
- GI50 (PC-3): 16100 nM (inactive)
- GI50 (HOP-62): 18900 nM (inactive)
- GI50 (CAKI-1): 16800 nM (inactive)
- GI50 (RPMI-8226): 45600 nM (inactive)
- GI50 (MOLT-4): > 100000 nM (inactive)
- GI50 (A549): 32200 nM (inactive)
- GI50 (HL-60): 41000 nM (inactive)
- GI50 (SN12C): 14900 nM (inactive)
- GI50 (DU-145): 16100 nM (inactive)
- GI50 (SK-MEL-2): 3980 nM (inactive)
- GI50 (786-0): 14500 nM (inactive)
- GI50 (NCI-H522): > 100000 nM (inactive)
- GI50 (EKVX): > 100000 nM (inactive)
- GI50 (HT-29): 27200 nM (inactive)
- GI50 (BT-549): 33700 nM (inactive)
- GI50 (U-251): 27200 nM (inactive)
- GI50 (M14): 18000 nM (inactive)
- GI50 (SW-620): 33400 nM (inactive)
- GI50 (HCC 2998): 16300 nM (inactive)
- GI50 (MCF7): 26200 nM (inactive)
- GI50 (MDA-N): 19100 nM (inactive)
- GI50 (MDA-MB-231): 16000 nM (inactive)
- GI50 (UACC-257): 25100 nM (inactive)
- GI50 (RXF 393): 31400 nM (inactive)
- GI50 (SNB-75): 15800 nM (inactive)
- GI50 (OVCAR-8): 32600 nM (inactive)
- GI50 (SK-MEL-28): 17300 nM (inactive)
- GI50 (K562): > 100000 nM (inactive)
- GI50 (KM12): 16900 nM (inactive)
- GI50 (SNB-19): 21400 nM (inactive)
- GI50 (SK-MEL-5): 14000 nM (inactive)
- GI50 (IGROV-1): > 100000 nM (inactive)
- GI50 (HOP-92): 35000 nM (inactive)
- GI50 (SK-OV-3): 24000 nM (inactive)
- GI50 (T47D): 11400 nM (inactive)
- GI50 (HCT-15): 14100 nM
- GI50 (SR): 63800 nM (inactive)
- GI50 (ACHN): 11100 nM (inactive)
- GI50 (NCI/ADR-RES): 27400 nM (inactive)

SMILES: O=C/C(=C(/Br)I)c1ccccc1
- GI50 (HCT-116): 1510 nM (inactive)
- GI50 (OVCAR-3): 2740 nM (inactive)
- GI50 (A498): 18600 nM (inactive)
- GI50 (Hs-578T): 9590 nM (inactive)
- GI50 (SF-295): 5770 nM (inactive)
- GI50 (COLO 205): 3910 nM (inactive)
- GI50 (NCI-H23): 5110 nM (inactive)
- GI50 (Malme-3M): 1920 nM (inactive)
- GI50 (CCRF-CEM): 248 nM (active)
- GI50 (TK-10): 6120 nM (inactive)
- GI50 (MDA-MB-435): 2560 nM (inactive)
- GI50 (NCI-H460): 8990 nM (inactive)
- GI50 (SF-268): 2300 nM (inactive)
- GI50 (NCI-H226): 9640 nM (inactive)
- GI50 (LOX IMVI): 3810 nM (inactive)
- GI50 (OVCAR-5): 9860 nM (inactive)
- GI50 (OVCAR-4): 3860 nM (inactive)
- GI50 (UACC-62): 6700 nM (inactive)
- GI50 (PC-3): 6350 nM (inactive)
- GI50 (HOP-62): 15700 nM (inactive)
- GI50 (CAKI-1): 2140 nM (inactive)
- GI50 (RPMI-8226): 2250 nM (inactive)
- GI50 (MOLT-4): 597 nM (active)
- GI50 (A549): 22900 nM (inactive)
- GI50 (HL-60): 352 nM (active)
- GI50 (SN12C): 1900 nM (inactive)
- GI50 (DU-145): 15700 nM (inactive)
- GI50 (SK-MEL-2): 3420 nM (inactive)
- GI50 (786-0): 2540 nM (inactive)
- GI50 (NCI-H522): 1780 nM (inactive)
- GI50 (EKVX): 15300 nM (inactive)
- GI50 (HT-29): 2290 nM (inactive)
- GI50 (BT-549): 2420 nM (inactive)
- GI50 (U-251): 4100 nM (inactive)
- GI50 (M14): 1800 nM (inactive)
- GI50 (SW-620): 1150 nM (inactive)
- GI50 (MCF7): 1300 nM (inactive)
- GI50 (MDA-N): 2540 nM (inactive)
- GI50 (MDA-MB-231): 2560 nM (inactive)
- GI50 (UACC-257): 5690 nM (inactive)
- GI50 (RXF 393): 2710 nM (inactive)
- GI50 (SNB-75): 5450 nM (inactive)
- GI50 (OVCAR-8): 2830 nM (inactive)
- GI50 (SF-539): 2530 nM (inactive)
- GI50 (SK-MEL-28): 1630 nM (inactive)
- GI50 (K562): 624 nM (active)
- GI50 (UO-31): 4970 nM (inactive)
- GI50 (KM12): 6610 nM (inactive)
- GI50 (SNB-19): 13600 nM (inactive)
- GI50 (SK-MEL-5): 7060 nM (inactive)
- GI50 (IGROV-1): 4410 nM (inactive)
- GI50 (HOP-92): 2280 nM (inactive)
- GI50 (SK-OV-3): 14500 nM (inactive)
- GI50 (T47D): 1860 nM (inactive)
- GI50 (HCT-15): 2240 nM
- GI50 (SR): 448 nM (active)
- GI50 (ACHN): 3100 nM (inactive)
- GI50 (NCI/ADR-RES): 3950 nM (inactive)
